# Laboratory results: patent US20190134039A1, “ANTIVIRAL JAK INHIBITORS USEFUL IN TREATING OR PREVENTING RETROVIRAL AND OTHER VIRAL INFECTIONS” (EMORY UNIVERSITY, priority 2011, published 2019)
# Counter-ions that a name gives are not always drawn. Like-named read-outs stand apart in the source and are kept apart here.
# How the values were obtained:
# Format in all cases: cell-based
# [1] = tested on: HIV-1 containing 4xAZT (D67N/K70R/T215Y/K219Q); assay: microbe, parasite or virus in culture; details: for FI50 (ratio of EC50 against mutant virus:EC50 against wild-type xxLAI) / FI90 (ratio of EC90 against mutant virus:EC90 against wild-type xxLAI): 4xAZT (D67N/K70R/T215Y/K219Q); for EC50 / EC90: Human immunodeficiency virus 1, Lymphocyte
# wild-type HIV-1xxLAI = assay: Antiviral potency in primary human lymphocytes, wild type; details: Human immunodeficiency virus 1, Lymphocyte
# HIV-1 containing L74V = assay: microbe, parasite or virus in culture; details: for EC50 / EC90: Human immunodeficiency virus 1, Lymphocyte; for FI50 (ratio of EC50 against mutant virus:EC50 against wild-type xxLAI) / FI90 (ratio of EC90 against mutant virus:EC90 against wild-type xxLAI): L74V
# HIV-1 containing K65R = assay: microbe, parasite or virus in culture; details: for EC50 / EC90: Human immunodeficiency virus 1, Lymphocyte; for FI50 (ratio of EC50 against mutant virus:EC50 against wild-type xxLAI) / FI90 (ratio of EC90 against mutant virus:EC90 against wild-type xxLAI): K65R
# HIV-1 containing M184V = assay: microbe, parasite or virus in culture; details: for EC50 / EC90: Human immunodeficiency virus 1, Lymphocyte; for FI50 (ratio of EC50 against mutant virus:EC50 against wild-type xxLAI) / FI90 (ratio of EC90 against mutant virus:EC90 against wild-type xxLAI): M184V
# [2] = tested on: HIV-1 containing A62V/V75I/F77L/F116Y/Q151M; assay: microbe, parasite or virus in culture; details: for FI50 (ratio of EC50 against mutant virus:EC50 against wild-type xxLAI) / FI90 (ratio of EC90 against mutant virus:EC90 against wild-type xxLAI): A62V/V75I/F77L/F116Y/Q151M; for EC50 / EC90: Human immunodeficiency virus 1, Lymphocyte
# [3] = tested on: various NRTI-resistant HIV-1; assay: Antiviral potency against various NRTI-resistant HIV-1 in primary human lymphocytes (summary over strains); details: K65R, M184V, L74V, A62V/V75I/F77L/F116Y/Q151M, 4xAZT
# Excerpt: FI50 is the ratio of EC50 against mutant virus:EC50 against wild-type xxLAI. FI90 is the ratio of EC90 against mutant virus:EC90 against wild-type xxLAI.
# [4] = xxLAI, primary human lymphocytes, read-out: EC50
# [5] = xxLAI, primary human lymphocytes, read-out: EC90
SMILES,FI50 (ratio of EC50 against mutant virus:EC50 against wild-type xxLAI) [1],FI90 (ratio of EC90 against mutant virus:EC90 against wild-type xxLAI) [1],EC50 [1] [nM],EC90 [1] [nM],EC50 (wild-type HIV-1xxLAI; [4]) [nM],EC90 (wild-type HIV-1xxLAI; [5]) [nM],FI50 (ratio of EC50 against mutant virus:EC50 against wild-type xxLAI) (HIV-1 containing L74V),FI90 (ratio of EC90 against mutant virus:EC90 against wild-type xxLAI) (HIV-1 containing L74V),EC50 (HIV-1 containing K65R) [nM],EC90 (HIV-1 containing K65R) [nM],FI50 (ratio of EC50 against mutant virus:EC50 against wild-type xxLAI) (HIV-1 containing K65R),FI90 (ratio of EC90 against mutant virus:EC90 against wild-type xxLAI) (HIV-1 containing K65R),EC50 (HIV-1 containing M184V) [nM],EC90 (HIV-1 containing M184V) [nM],FI50 (ratio of EC50 against mutant virus:EC50 against wild-type xxLAI) (HIV-1 containing M184V),FI90 (ratio of EC90 against mutant virus:EC90 against wild-type xxLAI) (HIV-1 containing M184V),FI50 (ratio of EC50 against mutant virus:EC50 against wild-type xxLAI) [2],FI90 (ratio of EC90 against mutant virus:EC90 against wild-type xxLAI) [2],EC50 [2] [nM],EC90 [2] [nM],further results
"Nc1nc(=O)n([C@@H]2CS[C@H](CO)O2)cc1F (relative stereo) [(−)FTC, cis-2-hydroxymethyl-5-(5-fluorocytosin-1-yl)-1,3-oxathiolane]",2,1.4,200 ± 100,1200 ± 100,90 ± 20,800 ± 400,2,1.6,500 ± 400,2400 ± 1400,5.5,2.9,10100 ± 7300,41300 ± 29300,117,50,4.2,2.5,400 ± 300,2100 ± 1600,EC50 (HIV-1 containing L74V): 200 ± 200 nM; EC90 (HIV-1 containing L74V): 1300 ± 1000 nM
"Nc1ccn([C@@H]2CS[C@H](CO)O2)c(=O)n1 [Compound 3TC, (−)-cis-2-hydroxymethyl-5-(cytosin-1-yl)-1,3-oxathiolane]",0.9,1.1,700 ± 800,3400 ± 1100,800 ± 400,3100 ± 1200,0.7,0.9,2500 ± 3000,6000 ± 5300,3.3,1.9,> 10000,> 10000,13.3,3.2,0.6,0.9,500 ± 700,2700 ± 1700,EC50 (HIV-1 containing L74V): 600 ± 800 nM; EC90 (HIV-1 containing L74V): 2900 ± 2900 nM
"Cc1cn([C@H]2C=C[C@@H](CO)O2)c(=O)[nH]c1=O [Compound D4T, 2′,3′-dideoxy-2′,3′-didehydrothymidine]",,8.3,27800 ± 37100,53200 ± 66300,,,0.9,1.5,1500 ± 600,7900 ± 300,1.5,1.2,600 ± 800,2600 ± 2500,0.6,0.4,6.9,11,6800 ± 5700,70300 ± 51400,EC50 (wild-type HIV-1xxLAI): 1000 ± 500 nM; EC90 (wild-type HIV-1xxLAI): 6400 ± 400 nM; EC50 (HIV-1 containing L74V): 900 ± 800 nM; EC90 (HIV-1 containing L74V): 9800 ± 2400 nM
"O=C1Nc2ccc(Cl)cc2[C@@](C#CC2CC2)(C(F)(F)F)O1 [EFV, efavirenz]",3.1,1,70 ± 40,,20 ± 30,200 ± 300,2.6,1.1,7,20 ± 10,0.3,0.1,10 ± 6,80 ± 80,0.5,0.4,7.7,2,200 ± 300,440 ± 600,EC50 (HIV-1 containing L74V): 60 ± 70 nM; antiviral potency for wild-type HIV-1xxLAI versus NRTI-resistant HIV-1 [3]: similarly potent across all NRTI resistant strains
"CC(C)OC(=O)OCOP(=O)(CO[C@H](C)Cn1cnc2c(N)ncnc21)OCOC(=O)OC(C)C [TDF, Tenofovir disoproxil fumarate]",1.3,1.3,70 ± 40,1200 ± 1100,200 ± 200,900 ± 800,1.4,1.2,400 ± 100,1600 ± 500,2.2,1.7,90 ± 30,500 ± 300,0.6,0.6,3.9,3.9,700 ± 800,3600 ± 2200,EC90 (HIV-1 containing L74V): 200 ± 100 nM
"OC[C@@H]1CC[C@H](n2cnc3c(O)ncnc32)O1 [ddI, 2′,3′-dideoxyinosine]",3.1,1.4,35500 ± 31000,77100 ± 32400,11500 ± 6600,55400 ± 23000,1.1,1.1,21200 ± 18300,86700 ± 800,1.8,1.6,11500 ± 9100,44900 ± 26200,1,0.8,3.5,1.5,40500 ± 52100,83500 ± 28600,EC50 (HIV-1 containing L74V): 13200 ± 8500 nM; EC90 (HIV-1 containing L74V): 80900 ± 16600 nM
